From PubChem BioAssay (NCI) come the findings set out here.

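Values below derive from 48-hour exposures of cells grown in 96-well plates, with endpoints linearly interpolated between the two concentrations bracketing the appropriate inhibition level. TGI denotes the concentration required for complete inhibition of growth.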

Among the test systems are UO-31 renal; HOP-62 NSCLC; HCC-2998 colon; ACHN renal; HL-60(TB) leukemia; RXF 393 renal; DU-145 prostate; SN12C renal; OVCAR-4 ovarian; 786-0 renal.
Common to all, as to assay: NCI-60 cell line screen, 48 h

`O=[N+]([O-])c1c(Br)cc(Br)c2c1Nc1c(ccc(Cl)c1Cl)S2`: the TGI in the assay on UO-31 renal was 20.5 µM; in the assay on HOP-62 NSCLC it was 34.9 µM; with HCC-2998 colon, 28.8 µM; in the assay on ACHN renal, 30.7 µM; with HL-60(TB) leukemia, > 23.9 µM; with RXF 393 renal, 35.1 µM. In addition, the TGI with DU-145 prostate is 27.3 µM; in the assay with SN12C renal, 27.9 µM; in the assay with OVCAR-4 ovarian, 28.7 µM; in the assay with 786-0 renal it was 22.8 µM.

As for `CCOP(=O)(OCC)C(Nc1cccc(F)c1)c1ccccc1` (stereo not given), the TGI with UO-31 renal was > 100 µM; in the assay on HOP-62 NSCLC, > 100 µM; in the assay with HCC-2998 colon, > 100 µM; with ACHN renal, > 100 µM; in the assay with HL-60(TB) leukemia, 55.3 µM; with RXF 393 renal it was > 100 µM. For the same compound, the TGI with DU-145 prostate, with SN12C renal, in the assay on OVCAR-4 ovarian and with 786-0 renal was > 100 µM each time.

Turning to `COc1cc2c(cc1OCCCC(=O)Nc1cc(C(=O)Nc3cc(C(=O)Nc4cc(C(=O)NCCCN(C)C)n(C)n4)n(C)n3)n(C)n1)N=CC1CCCN1C2=O` (stereo not given), the TGI with UO-31 renal is 16.6 µM; in the assay with HOP-62 NSCLC, > 100 µM; in the assay with HCC-2998 colon it was 93.5 µM; in the assay with ACHN renal, 38.4 µM; in the assay with HL-60(TB) leukemia it was > 100 µM; in the assay on RXF 393 renal it was 43.2 µM. The TGI is > 100 µM in the assay on DU-145 prostate, 42.3 µM in the assay on SN12C renal, 35.7 µM in the assay with OVCAR-4 ovarian and > 100 µM in the assay with 786-0 renal.

With `Cc1ccc(C(=O)N/N=C(\N=Nc2cccc(Cl)c2)c2ccc(N(CCC#N)CCC#N)cc2C)cc1`, the TGI in the assay on UO-31 renal, in the assay on HOP-62 NSCLC, in the assay on HCC-2998 colon, in the assay on ACHN renal, with HL-60(TB) leukemia and in the assay with RXF 393 renal was > 100 µM each time. Also, the TGI with DU-145 prostate, in the assay on SN12C renal, with OVCAR-4 ovarian and in the assay with 786-0 renal was > 100 µM in each case.

Take `CCNc1ccc2c(c1)Cc1ccccc1-2`: the TGI with UO-31 renal, in the assay with HOP-62 NSCLC, in the assay with HCC-2998 colon, in the assay with ACHN renal, in the assay on HL-60(TB) leukemia and with RXF 393 renal was > 100 µM each time. Further, the TGI with DU-145 prostate, in the assay on SN12C renal, with OVCAR-4 ovarian and in the assay on 786-0 renal was > 100 µM each time.

Consider `CCOC(=O)c1c(N2CCCC2)ncn(-c2ccccc2)c1=S`, for which the TGI in the assay on UO-31 renal, in the assay on HOP-62 NSCLC, in the assay on HCC-2998 colon, with ACHN renal, in the assay on HL-60(TB) leukemia and with RXF 393 renal was > 100 µM each time. Also, the TGI with DU-145 prostate, in the assay with SN12C renal, in the assay on OVCAR-4 ovarian and in the assay on 786-0 renal was > 100 µM in each case.

As for `Nc1ncnc2c1ncn2C1CCC(COS(N)(=O)=O)C1` (stereo not given), the TGI with UO-31 renal, with HOP-62 NSCLC, in the assay on HCC-2998 colon, with ACHN renal, in the assay on HL-60(TB) leukemia and in the assay with RXF 393 renal was > 100 µM each time. In addition, the TGI in the assay on DU-145 prostate, in the assay on SN12C renal, with OVCAR-4 ovarian and in the assay with 786-0 renal was > 100 µM throughout.

Take `O=[N+]([O-])c1ccc2nc(-c3ccccn3)c(-c3ccccn3)nc2c1`: the TGI in the assay with UO-31 renal, in the assay on HOP-62 NSCLC, in the assay with HCC-2998 colon, with ACHN renal, in the assay with HL-60(TB) leukemia and with RXF 393 renal was > 100 µM each time. Also, the TGI in the assay with DU-145 prostate, in the assay with SN12C renal, with OVCAR-4 ovarian and with 786-0 renal was > 100 µM throughout.

With `O=C1NC(=O)/C(=C/c2ccc(S(=O)(=O)N/N=C/c3ccc(Cl)cc3)cc2)N1`, the TGI with UO-31 renal, with HOP-62 NSCLC, in the assay on HCC-2998 colon, in the assay with ACHN renal, with HL-60(TB) leukemia and with RXF 393 renal was > 100 µM each time. In addition, the TGI with DU-145 prostate, in the assay on SN12C renal, with OVCAR-4 ovarian and in the assay with 786-0 renal was > 100 µM throughout.

For `COC(=O)[C@H]1[C@@H](C(C)C)O[C@@H](C(C)C)O[C@H]1C(F)(F)F`, the TGI with UO-31 renal, in the assay with HOP-62 NSCLC, with HCC-2998 colon, in the assay with ACHN renal, with HL-60(TB) leukemia and in the assay with RXF 393 renal was > 100 µM each time. Besides, the TGI in the assay on DU-145 prostate, in the assay with SN12C renal, in the assay with OVCAR-4 ovarian and with 786-0 renal was > 100 µM each time.

On to `Cc1ccc(C(=O)O)c(CC2Cc3c(C)cccc3C2=O)c1` (stereo not given), for which the TGI with UO-31 renal, with HOP-62 NSCLC, in the assay with HCC-2998 colon, with ACHN renal, in the assay with HL-60(TB) leukemia and with RXF 393 renal was > 100 µM throughout. The TGI in the assay on DU-145 prostate, in the assay with SN12C renal, in the assay with OVCAR-4 ovarian and in the assay with 786-0 renal was > 100 µM throughout.

Regarding `C(=C\c1cccc(/C=C/c2ccccn2)n1)/c1ccccn1`, the TGI in the assay with UO-31 renal, in the assay on HOP-62 NSCLC, in the assay with HCC-2998 colon, in the assay on ACHN renal, in the assay on HL-60(TB) leukemia and in the assay on RXF 393 renal was > 100 µM in each case. Moreover, the TGI in the assay on DU-145 prostate, in the assay on SN12C renal, in the assay with OVCAR-4 ovarian and with 786-0 renal was > 100 µM in each case.

Regarding `Cc1ccc(S(=O)(=O)NNC(=O)c2cc(C)ccc2NC(=O)C23CC4CC(CC(C4)C2)C3)cc1`, the TGI in the assay on UO-31 renal is 44.9 µM; in the assay with HOP-62 NSCLC, > 100 µM; with HCC-2998 colon it was > 100 µM; in the assay on ACHN renal it was 44.1 µM; with HL-60(TB) leukemia, > 100 µM; with RXF 393 renal it was 78 µM. The TGI is > 100 µM with DU-145 prostate, > 100 µM in the assay on SN12C renal, 78.5 µM in the assay on OVCAR-4 ovarian and 57.3 µM in the assay on 786-0 renal.
